Experiments:
mouse TGR5 receptor = biological target: T1, mouse TGR5 receptor (Mus musculus, UniProt Q80SS6); assay: Mouse TGR5 cAMP production assay (HTRF, Cisbio cAMP HiRange); format: cell-based; conditions: HEK293-EBNA cells overexpressing mouse TGR5, HTRF cAMP HiRange; coded A-D
T1 construct: expressed in transfected cells; host or cells: HEK293-EBNA (293 c18, ATCC CRL10852), Hygromycin B selection
T1 sequence (Q80SS6 1-329): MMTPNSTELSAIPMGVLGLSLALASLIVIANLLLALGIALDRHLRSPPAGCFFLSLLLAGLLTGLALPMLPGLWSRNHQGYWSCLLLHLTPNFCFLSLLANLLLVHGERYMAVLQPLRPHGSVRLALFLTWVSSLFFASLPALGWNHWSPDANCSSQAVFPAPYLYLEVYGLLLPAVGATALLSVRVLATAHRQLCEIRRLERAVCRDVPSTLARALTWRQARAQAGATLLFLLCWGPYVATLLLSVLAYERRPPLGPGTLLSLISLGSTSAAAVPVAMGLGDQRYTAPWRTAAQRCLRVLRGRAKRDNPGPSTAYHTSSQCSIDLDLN
Procedure, shortened: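 cAMP read by HTRF competition after 1 h room-temperature compound exposure of mouse TGR5-overexpressing HEK293-EBNA cells. Cells were suspended in serum-free DMEM containing 500 μM IBMX; compounds ran as 12-point half-log dilutions in duplicate; EC50 derived.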

human TGR5 receptor = biological target: T2, human TGR5 receptor (Homo sapiens, UniProt Q8TDU6); assay: Human TGR5 cAMP production assay; format: cell-based; conditions: human TGR5, luminescent cAMP assay; coded A-D; read-out: Human TGR5 Lum. cAMP Activity (EC50)
T2 construct: host or cells: CHO-K1 (hTGR5-CHO cells)
T2 sequence (Q8TDU6 1-330): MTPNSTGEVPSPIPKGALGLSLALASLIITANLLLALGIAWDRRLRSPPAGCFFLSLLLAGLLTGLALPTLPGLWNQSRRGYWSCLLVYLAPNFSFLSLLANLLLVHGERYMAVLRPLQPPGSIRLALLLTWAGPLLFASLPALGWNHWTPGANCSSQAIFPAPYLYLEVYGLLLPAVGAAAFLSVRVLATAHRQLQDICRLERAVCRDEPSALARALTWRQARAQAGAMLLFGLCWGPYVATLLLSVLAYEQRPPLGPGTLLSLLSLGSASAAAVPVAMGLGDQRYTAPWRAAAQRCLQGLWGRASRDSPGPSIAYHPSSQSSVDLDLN
Procedure, shortened: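 Intracellular cAMP read by luminescent enzyme-complementation (XS+) after overnight development, following 1 h room-temperature compound treatment of hTGR5-CHO-K1 cells in IBMX plus anti-cAMP antibody. Compounds tested as half-log dilution series; EC50 derived.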

Row | Compound | EC50 (mouse TGR5 receptor) [nM] | EC50 (human TGR5 receptor) [nM]
1 | Cc1cnccc1-c1cccc(C2CN(CCCC(=O)O)CCN2S(=O)(=O)c2cccc(Cl)c2C)c1 (stereo not drawn) [Compound 52, 4-(4-((3-chloro-2-methylphenyl)sulfonyl)-3-(3-(3-methylpyridin-4-yl)phenyl)piperazin-1-yl)butanoic acid] | 100 to 999 | 100 to 999
2 | Cc1cnccc1-c1cccc([C@H](C)N(CCCC(=O)O)S(=O)(=O)c2ccccc2C(F)(F)F)c1 [Compound 15, (S)-4-(N-(1-(3-(3-methylpyridin-4-yl)phenyl)ethyl)-2-(trifluoromethyl)phenylsulfonamido)-butanoic acid] | 100 to 999 | < 100
3 | CCc1cnccc1-c1cccc([C@H](C)N(CCCCN)S(=O)(=O)c2cccc(Cl)c2C)c1 [Compound 24AC, (S)-N-(4-aminobutyl)-3-chloro-N-(1-(3-(3-ethylpyridin-4-yl)phenyl)ethyl)-2-methylbenzenesulfonamide] | < 100 | 100 to 999
4 | CC(C)(NS(=O)(=O)c1ccccc1C(F)(F)F)c1cccc(-c2ccncc2CO)c1 [Compound 5AN, N-(2-(3-(3-(hydroxymethyl)pyridin-4-yl)phenyl)propan-2-yl)-2-(trifluoromethyl)benzenesulfonamide] | 100 to 999 | < 100
5 | COc1cnccc1-c1cccc(C(C)(C)NS(=O)(=O)c2ccc(F)cc2C(F)(F)F)c1 [Compound 2BD] | 100 to 999 | < 100
6 | CCOC(=O)CCN/C(=N/C#N)NCCCN(C(C)(C)c1cccc(-c2ccncc2C)c1)S(=O)(=O)c1cccc(Cl)c1C [Compound 25A, Ethyl (E)-3-(3-(3-((3-chloro-2-methyl-N-(2-(3-(3-methylpyridin-4-yl)phenyl)propan-2-yl)phenyl)sulfonamido)propyl)-2-cyanoguanidino)propanoate] | 100 to 999 | < 100
7 | COc1cnccc1-c1cccc(C(C)(C)NS(=O)(=O)c2cccc(C(F)(F)F)c2C)c1 [Compound 2BM] | 100 to 999 | < 100
8 | Cc1cnccc1-c1cccc(C2(N(CCCC(=O)O)S(=O)(=O)c3cccc(Cl)c3C)COC2)c1 [Compound 16AL, 4-(3-chloro-2-methyl-N-(3-(3-(3-methylpyridin-4-yl)phenyl)-oxetan-3-yl)phenyl-sulfonamido)butanoic acid] | 100 to 999 | 100 to 999
9 | Cc1cnccc1-c1cccc([C@H](C)N(CCCC(=O)NCCS(=O)(=O)NCC(=O)O)S(=O)(=O)c2ccccc2C)c1 [Compound 20AX, (S)-2-(4-(2-methyl-N-(1-(3-(3-methylpyridin-4-yl)phenyl)ethyl)phenylsulfonamido)butanamidoethylsulfonamido)acetate] | 100 to 999 | < 100
10 | Cc1cnccc1-c1cccc([C@H](C)N(CCC(=O)O)S(=O)(=O)c2cccc(Cl)c2C)c1 [Compound 16AK, (S)-3-(3-chloro-2-methyl-N-(1-(3-(3-methylpyridin-4-yl)phenyl)ethyl)phenylsulfonamido)propanoic acid] | 1000 to 30000 | 1000 to 30000
11 | Cc1cnccc1-c1cccc([C@H](C)N(CCCCNc2c(NCCS(=O)(=O)O)c(=O)c2=O)S(=O)(=O)c2ccccc2C(F)(F)F)c1 | 100 to 999 | < 100
12 | Cc1cnccc1-c1cccc(C(C)(C)NS(=O)(=O)c2ccccc2C)c1 [Compound 2BX] | < 100 | < 100
13 | Cc1cnccc1-c1cccc(C2CN(C(=O)CCC(=O)O)CCN2S(=O)(=O)c2ccccc2C)c1 (stereo not drawn) [Compound 46AI, 4-(3-(3-(3-methylpyridin-4-yl)phenyl)-4-(o-tolylsulfonyl)piperazin-1-yl)-4-oxobutanoic acid] | < 100 | 100 to 999
14 | Cc1cnccc1-c1cccc(C2CN(CCCC(=O)NCCS(=O)(=O)O)CCN2S(=O)(=O)c2cccc(Cl)c2C)c1 (stereo not drawn) [Compound 53AA, 2-(4-(4-((3-chloro-2-methylphenyl)sulfonyl)-3-(3-(3-methylpyridin-4-yl)phenyl)piperazin-1-yl)butanamido)ethanesulfonic acid] | < 100 | 100 to 999
15 | Cc1cnccc1-c1cccc([C@H](CCCC#N)NS(=O)(=O)c2cccc(Cl)c2C)c1 [Compound 2BZ] | < 100 | < 100
16 | Cc1cnccc1-c1cccc(C2CN(C(=O)CS(=O)(=O)O)CCN2S(=O)(=O)c2ccccc2C(F)(F)F)c1 (stereo not drawn) [Compound 49AG, 2-(3-(3-(3-methylpyridin-4-yl)phenyl)-4-((2-(trifluoromethyl)phenyl)sulfonyl)piperazin-1-yl)-2-oxoethanesulfonic acid] | < 100 | 100 to 999
17 | Cc1cnccc1-c1cccc([C@H](C)N(CCCC(=O)NCCCS(=O)(=O)O)S(=O)(=O)c2cccc(Cl)c2C)c1 [Compound 20AL, (S)-3-(4-(3-chloro-2-methyl-N-(1-(3-(3-methylpyridin-4-yl)phenyl)ethyl)phenylsulfonamido)butanamido)propane-1-sulfonic acid] | < 100 | < 100
18 | Cc1cnccc1-c1cccc([C@H](C)N(CCC(=O)NCCS(=O)(=O)O)S(=O)(=O)c2cccc(Cl)c2C)c1 [Compound 20BV, (S)-2-(3-(3-chloro-2-methyl-N-(1-(3-(3-methylpyridin-4-yl)phenyl)ethyl)phenylsulfonamido)propanamido)ethanesulfonic acid] | < 100 | 100 to 999
19 | CCc1cnccc1-c1cccc(C2CN(C(=O)CN(C)CC(=O)O)CCN2S(=O)(=O)c2cccc(Cl)c2C)c1 (stereo not drawn) [Compound 46AC, 2-((2-(4-((3-chloro-2-methylphenyl)sulfonyl)-3-(3-(3-ethylpyridin-4-yl)phenyl)piperazin-1-yl)-2-oxoethyl)(methyl)amino)acetic acid] | < 100 | < 100
20 | Cc1cnccc1-c1cccc([C@H](C)N(CCCCC(=O)O)S(=O)(=O)c2cccc(Cl)c2C)c1 [Compound 16AF, (S)-5-(3-chloro-2-methyl-N-(1-(3-(3-methylpyridin-4-yl)phenyl)ethyl)phenylsulfonamido)pentanoic acid] | 100 to 999 | < 100
21 | Cc1cnccc1-c1cccc([C@H](C)N(CCCC(=O)NCCS(=O)(=O)O)S(=O)(=O)c2ccccc2C)c1 [Compound 20AQ, (S)-2-(4-(2-methyl-N-(1-(3-(3-methylpyridin-4-yl)phenyl)ethyl)phenylsulfonamido)butanamido)ethanesulfonic acid] | 100 to 999 | < 100
22 | Cc1cnccc1-c1cccc(CN(CCCNC(=O)NCS(=O)(=O)O)S(=O)(=O)c2cccc(Cl)c2C)c1 [Compound 28AI, (3-(3-(3-chloro-2-methyl-N-(3-(3-methylpyridin-4-yl)benzyl)phenylsulfonamido)propyl)ureido)methanesulfonic acid] | 100 to 999 | 100 to 999
23 | CCc1cnccc1-c1cccc([C@H](C)N(CCCCNS(=O)(=O)CCC(=O)O)S(=O)(=O)c2cccc(Cl)c2C)c1 [Compound 26AE, (S)-3-(N-(4-(3-chloro-N-(1-(3-(3-ethylpyridin-4-yl)phenyl)ethyl)-2-methylphenylsulfonamido)butyl)sulfamoyl)propanoic acid] | < 100 | < 100
24 | CC(C)(NS(=O)(=O)c1cccc(C(F)(F)F)c1)c1cccc(-c2ccncc2CO)c1 [Compound 5AE, N-(2-(3-(3-(hydroxymethyl)-pyridin-4-yl)phenyl)propan-2-yl)-3-(trifluoromethyl)benzenesulfonamide] | 1000 to 30000 | < 100
25 | Cc1c(Cl)cccc1S(=O)(=O)N[C@@H](C)c1cccc(-n2ccncc2=O)c1 [Compound 12, (S)-3-chloro-2-methyl-N-(1-(3-(2-oxopyrazin-1(2H)-yl)phenyl)ethyl)benzenesulfonamide] | 1000 to 30000 | 100 to 999
26 | Cc1cnccc1-c1cccc(C(C)(C)N(CCCNS(=O)(=O)CCNC(=O)NCCS(=O)(=O)O)S(=O)(=O)c2cccc(Cl)c2C)c1 [Compound 28AD, 2-(3-(2-(N-(3-((3-chloro-2-methyl-N-(2-(3-(3-methylpyridin-4-yl)phenyl)propan-2-yl)phenyl)sulfonamido)propyl)sulfamoyl)ethyl)ureido)ethane-1-sulfonic acid] | < 100 | < 100
27 | Cc1cnccc1-c1cccc(CCN(CCCC(=O)NCCS(=O)(=O)O)S(=O)(=O)c2cccc(Cl)c2C)c1 [Compound 20BT, 2-(4-(3-chloro-2-methyl-N-(3-(3-methylpyridin-4-yl)phenethyl)phenylsulfonamido)butanamido)ethanesulfonic acid] | 1000 to 30000 | 100 to 999
